Reference: article PMC3950514 (mBio, 2014)

Columns and labels:
[1] = molecular target: CnCam1 with human calcineurin (Cryptococcus neoformans, UniProt J9VTH9); experiment: malachite green phosphate release from RII phosphopeptide by human calcineurin; assay type: biochemical
[2] = molecular target: C. neoformans calmodulin (Cam1) (C. neoformans); experiment: pull-down

Sequence of green fluorescent protein (GFP)-tagged C. neoformans calcineurin (Cna1-GFP) (O42773 whole entry): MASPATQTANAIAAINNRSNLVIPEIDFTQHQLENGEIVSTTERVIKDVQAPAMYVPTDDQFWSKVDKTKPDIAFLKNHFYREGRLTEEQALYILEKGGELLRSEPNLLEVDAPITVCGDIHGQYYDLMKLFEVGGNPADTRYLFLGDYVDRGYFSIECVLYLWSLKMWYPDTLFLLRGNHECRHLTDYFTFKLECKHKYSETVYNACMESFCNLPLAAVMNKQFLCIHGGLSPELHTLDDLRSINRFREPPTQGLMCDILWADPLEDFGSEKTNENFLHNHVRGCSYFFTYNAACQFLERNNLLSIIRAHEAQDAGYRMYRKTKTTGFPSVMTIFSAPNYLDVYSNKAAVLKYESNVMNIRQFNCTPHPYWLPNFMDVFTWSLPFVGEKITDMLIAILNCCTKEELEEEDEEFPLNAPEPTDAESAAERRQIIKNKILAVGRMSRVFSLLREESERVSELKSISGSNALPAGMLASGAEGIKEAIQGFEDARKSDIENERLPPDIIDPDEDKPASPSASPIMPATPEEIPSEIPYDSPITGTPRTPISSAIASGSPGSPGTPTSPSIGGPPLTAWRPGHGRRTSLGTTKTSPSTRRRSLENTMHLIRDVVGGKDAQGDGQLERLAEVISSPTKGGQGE

IC50 [1] [µM]	Compound	percent reduction of the bound amount with toremifene (20 µg/ml) against DMSO [2] [%]
61.6	CN(C)CCOc1ccc(/C(=C(/CCCl)c2ccccc2)c2ccccc2)cc1 [TOR, toremifene]	
	green fluorescent protein (GFP)-tagged C. neoformans calcineurin (Cna1-GFP) (from UniProt O42773 1-639) (enzyme)	45
